# In ChEMBL document CHEMBL1201862, “PubChem BioAssay data set” (2004):
# Activity calls are given as the source filed them.
# How the values were obtained:
# [1] = fluconazole-exposed Candida albicans growth modulators – fluorescence, retest, confirmation (AID 2467); assay type: functional, cell-based
# [2] = NIH-3T3 fibroblast cytotoxicity, dose response, cytotoxicity control, cell-based, fluorescence, Alamar Blue, secondary assay (AID 2327); assay type: functional;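 further: NIH-3T3 mouse fibroblasts cultured with fluconazole at 8 µg/mL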
# Cytochrome P450 2D6 = Cytochrome P450 2D6 (Homo sapiens, UniProt P10635);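 further: CYP2D6 member of a cytochrome P450 panel assay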
# Cytochrome P450 2D6, sequence (P10635 whole entry): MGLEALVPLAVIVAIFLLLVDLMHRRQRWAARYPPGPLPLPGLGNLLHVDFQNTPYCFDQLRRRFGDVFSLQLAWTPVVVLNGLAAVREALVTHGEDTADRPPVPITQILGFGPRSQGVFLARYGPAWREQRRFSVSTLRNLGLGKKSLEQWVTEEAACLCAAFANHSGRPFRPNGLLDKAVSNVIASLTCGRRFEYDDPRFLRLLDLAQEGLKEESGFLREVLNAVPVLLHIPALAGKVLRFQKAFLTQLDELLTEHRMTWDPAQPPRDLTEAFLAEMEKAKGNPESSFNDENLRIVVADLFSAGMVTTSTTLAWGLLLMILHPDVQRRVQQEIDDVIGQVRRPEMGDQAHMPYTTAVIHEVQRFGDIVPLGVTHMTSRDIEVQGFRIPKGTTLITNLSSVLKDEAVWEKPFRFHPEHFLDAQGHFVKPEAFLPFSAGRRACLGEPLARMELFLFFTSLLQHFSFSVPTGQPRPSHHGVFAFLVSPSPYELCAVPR
# Cytochrome P450 2C9 = Cytochrome P450 2C9 (Homo sapiens, UniProt P11712)
# Cytochrome P450 2C9, sequence (P11712 whole entry): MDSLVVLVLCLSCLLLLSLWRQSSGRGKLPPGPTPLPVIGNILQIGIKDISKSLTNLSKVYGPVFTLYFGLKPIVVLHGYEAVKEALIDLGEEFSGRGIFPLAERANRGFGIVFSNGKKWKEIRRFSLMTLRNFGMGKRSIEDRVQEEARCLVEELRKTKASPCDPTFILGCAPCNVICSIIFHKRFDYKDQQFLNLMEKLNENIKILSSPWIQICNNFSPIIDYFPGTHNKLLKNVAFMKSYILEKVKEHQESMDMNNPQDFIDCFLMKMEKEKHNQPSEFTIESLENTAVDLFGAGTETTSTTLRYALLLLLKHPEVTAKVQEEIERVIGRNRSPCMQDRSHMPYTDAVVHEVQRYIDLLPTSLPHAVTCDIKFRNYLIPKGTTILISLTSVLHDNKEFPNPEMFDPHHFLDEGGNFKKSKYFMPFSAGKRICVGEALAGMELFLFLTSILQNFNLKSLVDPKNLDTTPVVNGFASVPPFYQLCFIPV
# [3] = biological target: T1, Rac GTPase-activating protein 1 (Homo sapiens, UniProt Q9H0H5); assay: blockers of MgcRacGAP-driven Rac1 GTP hydrolysis – biochemical, ADP Hunter fluorescence, primary and confirmatory, confirmation (AID 624330); assay type: functional
# T1 sequence (Q9H0H5 whole entry): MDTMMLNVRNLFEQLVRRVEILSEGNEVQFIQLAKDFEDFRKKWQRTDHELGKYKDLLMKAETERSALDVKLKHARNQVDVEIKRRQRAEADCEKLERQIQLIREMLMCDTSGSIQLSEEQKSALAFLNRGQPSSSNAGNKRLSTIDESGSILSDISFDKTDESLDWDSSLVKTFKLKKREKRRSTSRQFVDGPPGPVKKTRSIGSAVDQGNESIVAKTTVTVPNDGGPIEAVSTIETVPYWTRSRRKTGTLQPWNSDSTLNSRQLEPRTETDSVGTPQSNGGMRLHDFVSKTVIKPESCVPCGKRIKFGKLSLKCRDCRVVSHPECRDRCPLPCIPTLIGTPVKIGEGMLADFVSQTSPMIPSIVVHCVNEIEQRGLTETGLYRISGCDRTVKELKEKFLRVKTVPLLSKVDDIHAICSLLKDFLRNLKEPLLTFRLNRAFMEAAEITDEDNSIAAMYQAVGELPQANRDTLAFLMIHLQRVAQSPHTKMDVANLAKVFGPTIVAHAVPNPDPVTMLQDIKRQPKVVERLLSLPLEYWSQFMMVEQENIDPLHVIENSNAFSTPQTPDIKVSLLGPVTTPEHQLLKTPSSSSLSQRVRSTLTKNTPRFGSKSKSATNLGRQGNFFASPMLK
# [4] = biological target: FAD-linked sulfhydryl oxidase ALR (Homo sapiens, UniProt P55789); assay: ALR-catalysed DTT oxidation blockers – biochemical, H2O2 detection, luminescence, cherry-pick, dose response (AID 493248)
# FAD-linked sulfhydryl oxidase ALR, sequence (P55789 whole entry): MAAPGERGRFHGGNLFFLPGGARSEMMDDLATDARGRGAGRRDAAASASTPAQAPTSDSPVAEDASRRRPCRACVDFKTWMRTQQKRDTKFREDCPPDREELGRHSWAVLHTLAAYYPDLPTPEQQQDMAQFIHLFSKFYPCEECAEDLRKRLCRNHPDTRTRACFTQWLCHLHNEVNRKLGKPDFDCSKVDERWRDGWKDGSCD
# Cytochrome P450 3A4 = Cytochrome P450 3A4 (Homo sapiens, UniProt P08684);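 further: CYP3A4 tested as one member of a cytochrome P450 panel screen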
# Cytochrome P450 3A4, sequence (P08684 whole entry): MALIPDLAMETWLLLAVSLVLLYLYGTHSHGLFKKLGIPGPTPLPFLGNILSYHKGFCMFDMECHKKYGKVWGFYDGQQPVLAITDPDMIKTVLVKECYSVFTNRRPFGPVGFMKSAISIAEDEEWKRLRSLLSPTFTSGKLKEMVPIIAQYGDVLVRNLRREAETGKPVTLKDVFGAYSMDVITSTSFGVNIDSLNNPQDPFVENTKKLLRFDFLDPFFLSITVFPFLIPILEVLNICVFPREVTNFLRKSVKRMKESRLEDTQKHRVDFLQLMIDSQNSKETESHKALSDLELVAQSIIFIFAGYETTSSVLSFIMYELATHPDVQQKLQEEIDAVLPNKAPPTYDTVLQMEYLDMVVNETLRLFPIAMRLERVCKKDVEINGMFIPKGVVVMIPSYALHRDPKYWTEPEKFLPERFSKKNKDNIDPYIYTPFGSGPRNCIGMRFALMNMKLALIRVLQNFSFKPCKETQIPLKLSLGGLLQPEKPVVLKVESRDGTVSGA
# Cytochrome P450 1A2 = biological target: T2, Cytochrome P450 1A2 (Homo sapiens, UniProt P05177);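 further: PubChem cytochrome P450 panel assay, CYP1A2 panel member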
# T2 sequence (P05177 whole entry): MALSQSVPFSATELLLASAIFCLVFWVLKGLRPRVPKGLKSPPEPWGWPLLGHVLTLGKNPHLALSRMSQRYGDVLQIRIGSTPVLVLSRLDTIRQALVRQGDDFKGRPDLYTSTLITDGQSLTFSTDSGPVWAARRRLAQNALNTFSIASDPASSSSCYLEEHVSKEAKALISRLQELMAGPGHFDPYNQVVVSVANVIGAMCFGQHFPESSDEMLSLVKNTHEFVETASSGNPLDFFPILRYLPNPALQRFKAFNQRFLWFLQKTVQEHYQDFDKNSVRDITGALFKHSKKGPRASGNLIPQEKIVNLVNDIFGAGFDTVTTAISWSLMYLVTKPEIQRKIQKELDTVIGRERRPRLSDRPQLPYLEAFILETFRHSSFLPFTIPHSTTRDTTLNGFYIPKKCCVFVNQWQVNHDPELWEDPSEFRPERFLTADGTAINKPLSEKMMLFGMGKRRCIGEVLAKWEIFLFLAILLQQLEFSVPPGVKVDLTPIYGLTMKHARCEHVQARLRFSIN
# Cytochrome P450 2C19 = Cytochrome P450 2C19 (Homo sapiens, UniProt P33261); assay: Cytochrome panel assay with activity outcomes. Panel member name: p450-cyp2c19 Compounds with AC50 equal or less than 10 uM are considered active; assay type: functional; conditions: read-out: AC50
# Cytochrome P450 2C19, sequence (P33261 whole entry): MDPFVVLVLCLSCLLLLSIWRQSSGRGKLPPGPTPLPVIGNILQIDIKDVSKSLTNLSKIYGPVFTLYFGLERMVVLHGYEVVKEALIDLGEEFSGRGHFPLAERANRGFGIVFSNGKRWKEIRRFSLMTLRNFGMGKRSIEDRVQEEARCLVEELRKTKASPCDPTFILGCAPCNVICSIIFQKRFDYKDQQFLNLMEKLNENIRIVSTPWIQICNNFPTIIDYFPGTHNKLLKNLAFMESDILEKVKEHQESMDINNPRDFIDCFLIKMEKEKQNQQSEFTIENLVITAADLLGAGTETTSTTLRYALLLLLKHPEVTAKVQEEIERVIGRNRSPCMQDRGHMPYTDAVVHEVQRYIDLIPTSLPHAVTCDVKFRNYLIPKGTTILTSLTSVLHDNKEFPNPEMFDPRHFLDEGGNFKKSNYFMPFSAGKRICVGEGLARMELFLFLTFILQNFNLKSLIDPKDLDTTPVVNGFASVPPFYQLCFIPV
# [5] = loss of viability in HepG2 cells – cell-based, CellTiter-Glo, cherry-picked, cytotoxicity control for Shn3 inhibitor project, dose response (AID 624134); assay type: functional
# [6] = non-specific 3'UTR reporter inhibition in Clone20-Shn3RL – cell-based, Renilla luciferase, cherry-picked, counter-screen for Shn3 inhibitor project, dose response (AID 624133); assay type: functional
# [7] = reduction of Shn3 3'UTR-driven luciferase in osteoblasts – cell-based, Clone20 osteoblasts, firefly luciferase, cherry-picked, dose response (AID 624132); assay type: functional;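 further: firefly luciferase luminescence from reporter carrying the Shn3 3'UTR in osteoblasts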
# [8] = Luminescence Cell-Based Dose Retest to Confirm Inhibitors of Cancer Stem Cells. [Related pubchem assays (depositor defined):AID2717, AID2721]; assay type: functional; conditions: Homo sapiens
# [9] = microbe, parasite or virus in culture; assay type: functional; conditions: Mycobacterium tuberculosis
# Paired box protein Pax-8 = Paired box protein Pax-8 (Homo sapiens, UniProt Q06710); assay: PAX8 transcriptional activity inhibition in RMG-I – RMG-I cells, luciferase, cherry-pick, dose response (AID 687027); assay type: functional, cell-based;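 further: luciferase reporter driven by Pax8 target thyroperoxidase promoter measured by SteadyGlo luminescence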
# Paired box protein Pax-8, sequence (Q06710 whole entry): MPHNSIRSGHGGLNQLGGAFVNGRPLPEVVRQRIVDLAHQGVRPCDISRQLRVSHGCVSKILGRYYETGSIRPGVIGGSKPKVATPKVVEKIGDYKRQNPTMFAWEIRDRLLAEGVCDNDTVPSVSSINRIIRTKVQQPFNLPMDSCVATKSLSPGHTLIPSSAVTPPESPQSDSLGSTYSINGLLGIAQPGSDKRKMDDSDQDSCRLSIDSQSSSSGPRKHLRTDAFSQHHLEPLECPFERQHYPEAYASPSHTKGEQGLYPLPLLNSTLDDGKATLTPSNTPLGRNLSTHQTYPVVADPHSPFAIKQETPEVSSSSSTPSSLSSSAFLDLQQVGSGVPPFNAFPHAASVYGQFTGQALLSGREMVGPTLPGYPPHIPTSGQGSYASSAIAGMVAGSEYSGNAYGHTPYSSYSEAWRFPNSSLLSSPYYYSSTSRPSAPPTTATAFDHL
# [10] = P. falciparum Dd2 growth inhibitors, dose response, SYBR Green, cherry-picked samples (AID 1159567); assay type: functional, cell-based
compound,measurement,setting,value
COC(=O)c1cn(CC(=O)NC2CCCCC2)c2ccccc12,EC50,[1],> 38 µM (not active)
same,EC50,[2],> 150 µM (inactive)
COc1ccc(-c2cc(-c3cc(F)ccc3O)[nH]n2)cc1OC,EC50,[2],> 150 µM (inactive)
same,AC50,Cytochrome P450 2D6,28.2 µM (inconclusive)
same,AC50,Cytochrome P450 2C9,39.8 µM (inconclusive)
CCOCCCNCC(=O)NCC1CCCCC1,IC50,[3],141 µM (active)
O=[N+]([O-])c1ccc(-c2cn(-c3ccccc3F)c(=S)[nH]2)cc1,AC50,[4],> 100 µM (inactive)
O=C(OC1CCN(CCCl)CC1)C(c1ccccc1)c1ccccc1,AC50,Cytochrome P450 3A4,10 µM (inconclusive)
same,AC50,Cytochrome P450 1A2,12.6 µM (inconclusive)
same,AC50,Cytochrome P450 2D6,31.6 µM (inconclusive)
O=C(Nc1ccccc1)c1cc(-n2cnnc2)ccc1Cl,AC50,Cytochrome P450 1A2,12.6 µM (inconclusive)
same,AC50,Cytochrome P450 2C9,25.1 µM (inconclusive)
O=C(C1CC1)N1CCN=C1SCc1ccccc1Cl,AC50,[4],2.29 µM (active)
CC(C)c1ccc(NC(=O)C(c2ccccc2)N2CCN(C=O)CC2)cc1 (stereo not given),AC50,Cytochrome P450 2C19,28.2 µM (inconclusive)
same,AC50,Cytochrome P450 3A4,11.2 µM (inconclusive)
same,AC50,Cytochrome P450 1A2,31.6 µM (inconclusive)
same,AC50,Cytochrome P450 2D6,14.1 µM (inconclusive)
same,AC50,Cytochrome P450 2C9,14.1 µM (inconclusive)
CCc1ccccc1N1C(=O)CC(N2CCc3ccccc32)C1=O (stereo not given),AC50,[4],2.81 µM (active)
O=C(NCc1cccnc1)c1ccc(COc2ccccc2Cl)cc1,AC50,[4],0.055 µM (active)
NC(=O)CC(NC(=O)c1ccccc1)c1ccc(N2CCC(Cc3ccccc3)CC2)c([N+](=O)[O-])c1 (stereo not given),AC50,[5],2.74 µM (active)
same,AC50,[6],4.2 µM (active)
same,AC50,[7],2.61 µM (active)
Cc1cccc(NC(=O)c2nc[nH]c2C(=O)N[C@H](C)c2ccccc2)c1,AC50,[8],6.42 µM (active)
same,CC50,[9],36.9 µM (active)
CC(C)CN1C(=O)c2ccc(C(=O)Nc3ccccc3C(=O)O)cc2C1=O,AC50,[4],> 100 µM (inactive)
CC1CCCCN1Cc1cccnc1 (stereo not given),IC50,[3],109 µM (active)
N#Cc1ccc(OCC(O)CN2CCN(c3ncc(C(F)(F)F)cc3Cl)CC2)cc1 (stereo not given),CC50,[9],> 40 µM (active)
CCOC(=O)Cc1csc(NC(=S)NC(=O)c2ccc(F)cc2)n1,AC50,Cytochrome P450 3A4,17.8 µM (inconclusive)
same,AC50,Cytochrome P450 1A2,1.12 µM (inconclusive)
same,AC50,Cytochrome P450 2C9,1.26 µM (inconclusive)
CCN(CC)CC(=O)NN(Cc1ccccc1)c1ccccc1,IC50,[3],108 µM (active)
C[N+](C)(C)/N=C\c1ccc(O)c(O)c1,AC50,Cytochrome P450 1A2,10 µM (inconclusive)
same,AC50,Cytochrome P450 2D6,2 µM (inconclusive)
CCc1nn(C)c(-c2nnc(S)n2N)c1Cl,AC50,Cytochrome P450 2C9,28.2 µM (inconclusive)
same,AC50,[4],0.673 µM (active)
CCOc1ccc2nc(N=C(N)N=C(S)Nc3cccc(C)c3)nc(C)c2c1,CC50,[9],> 40 µM (active)
COc1cc(/C=C2/C(=O)NN(c3ccccc3)C2=O)cc(Br)c1O,AC50,[4],0.484 µM (active)
CCc1ccc(CNC(=O)c2cc3c(C)nc4ccccc4c3o2)cc1,AC50,[5],> 70 µM (inactive)
same,AC50,[6],7.78 µM (active)
same,AC50,[7],2.02 µM (active)
Cc1nc(-c2nc(-c3c(C(=O)NNC(=O)c4ccc(Cl)cc4)noc3C)cs2)cs1,CC50,[9],> 40 µM (active)
O=C(Nc1cccc(F)c1)c1ccc2ncsc2c1,EC50,[1],3.17 µM (active)
same,EC50,[2],> 150 µM (inactive)
CCc1ccc(CCN2CCCCC2)nc1,AC50,Cytochrome P450 1A2,5.01 µM (inconclusive)
O=C(/C=C/c1ccccc1)NNc1ccc(Cl)cc1,EC50,[1],2.71 µM (active)
same,AC50,[8],5.85 µM (active)
same,EC50,[2],28.1 µM (inconclusive)
Oc1ccc(Cl)cc1C1=NNC(c2cc(Br)cc3c2OCOC3)C1 (stereo not given),EC50,[1],> 38 µM (not active)
same,EC50,[2],> 160 µM (inactive)
COc1ccc(-n2c(=O)c(-c3ccc(Cl)cc3)nc3cnc(N4CCNCC4)nc32)cc1,AC50,Cytochrome P450 1A2,12.6 µM (inconclusive)
Nn1c(S)nnc1Cc1ccccc1,AC50,[4],0.134 µM (active)
OCCn1cnc2c(SCc3ccccc3)ncnc21,AC50,Cytochrome P450 1A2,3.16 µM (inconclusive)
COc1cccc(C(=O)Nc2cc3c(cc2N2CCCC2)n(C)c(=O)n3C)c1,IC50,[3],156 µM (active)
N#CCC(=O)Nc1ccc(C(=O)NCc2cccc(Cl)c2)cc1,AC50,[4],9.8 µM (active)
Nc1ccc2ccc(O)cc2c1,IC50,[3],36.7 µM (active)
O=C(NCc1ccco1)c1cc(C(=O)C2CC2)c[nH]1,AC50,Cytochrome P450 1A2,0.2 µM (inconclusive)
same,AC50,Cytochrome P450 2C9,39.8 µM (inconclusive)
CC(=O)N1CCN(c2ccc(NCc3ccco3)cc2)CC1,IC50,[3],14.6 µM (active)
OCC1OC(n2cnc3c(O)nnnc32)C(O)C1O (stereo not given),AC50,Paired box protein Pax-8,0.785 µM (active)
CCCN(C)C[C@H]1OCCCC[C@@H](C)Oc2ccc(NC(=O)c3ccccc3)cc2C(=O)N([C@H](C)CO)C[C@H]1C,AC50,Paired box protein Pax-8,69.5 µM (active)
NC(=S)n1[nH]c(-c2ccccc2)c(N=Nc2ccccc2C(=O)N2CCOCC2)c1=O,EC50,[1],7.72 µM (active)
same,EC50,[2],> 150 µM (inactive)
CCc1ccc(N2CC(C(=O)N/N=C/c3cc([N+](=O)[O-])ccc3O)CC2=O)cc1 (stereo not given),EC50,[1],> 38 µM (not active)
same,EC50,[2],23.1 µM (active)
Nc1cccc(/C=C/c2ccncc2)c1,AC50,[4],0.59 µM (active)
O=C(CCN1CCN(C(c2ccccc2)c2ccccc2)CC1)N/N=C/c1ccc(O)cc1,IC50,[3],88.2 µM (active)
same,AC50,[4],1.6 µM (active)
CN1C[C@H]2[C@@H](c3ccccc31)[C@H](CO)N2Cc1ccccc1F,AC50,[10],8.06 µM (active)
O=C(c1ccccc1)N1CC[C@@H]2[C@@H](CO)Nc3ccc(-c4ccc(F)cc4)cc3[C@@H]21,AC50,[10],5.45 µM (active)
CO[C@H]1CN(C)C(=O)c2cc(NC(=O)c3ccc(F)cc3)ccc2OC[C@H](C)N(C(=O)c2ccc(F)cc2)C[C@H]1C,AC50,[10],6.03 µM (active)
COc1ccccc1CNC(=O)C[C@H]1C[C@@H]2c3cc(NC(=O)Nc4ccc(C(F)(F)F)cc4)ccc3O[C@@H]2[C@@H](CO)O1,AC50,[10],8.47 µM (active)
CN(C)c1ccc2c(c1)[C@@H]1C[C@@H](CC(=O)N3CCc4ccccc4C3)O[C@@H](CO)[C@@H]1O2,AC50,[10],9.12 µM (active)
C[C@H]1CN([C@@H](C)CO)S(=O)(=O)c2ccc(C#Cc3ccccc3)cc2O[C@@H]1CN(C)C(=O)C1CC1,AC50,[10],5.43 µM (active)
CC(C)=CCNc1ncnc2nc[nH]c12,AC50,Cytochrome P450 1A2,6.31 µM (inconclusive)
